{"source": "paper PMC10981527", "about": "(Bioorganic & medicinal chemistry letters, 2024)", "key": {"[1]": {"target": "T1, geranylgeranyl diphosphate synthase (GGDPS) (Homo sapiens, UniProt O95749)", "T1 sequence (O95749 1-300)": "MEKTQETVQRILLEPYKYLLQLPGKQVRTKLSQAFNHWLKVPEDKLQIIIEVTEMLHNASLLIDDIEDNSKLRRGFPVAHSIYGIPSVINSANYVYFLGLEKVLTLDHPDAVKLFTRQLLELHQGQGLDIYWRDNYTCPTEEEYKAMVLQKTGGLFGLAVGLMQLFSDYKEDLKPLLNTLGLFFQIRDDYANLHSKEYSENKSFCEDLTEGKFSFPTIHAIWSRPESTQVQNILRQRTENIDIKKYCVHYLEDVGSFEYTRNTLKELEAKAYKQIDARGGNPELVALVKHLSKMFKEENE", "test": "Enzyme assay utilizing recombinant GGDPS", "assay_type": "biochemical"}, "[2]": {"test_system": "farnesyl diphosphate synthase (FDPS)", "settings": "in words; cited from earlier work"}, "myeloma cells": {"test_system": "myeloma cells", "settings": "cited from earlier work"}, "[3]": {"settings": "observed only at high concentrations; cited from earlier work"}, "[4]": {"target": "T1, geranylgeranyl diphosphate synthase (GGDPS)", "settings": "read-out: GGDPS IC50; historical control; cited from earlier work"}, "RPMI-8226 cells": {"test_system": "RPMI-8226 cells", "settings": "historical control; cited from earlier work"}}, "note": "Like-named read-outs stand apart in the source and are kept apart here.", "data": [{"compound": "CC(C)=CCC/C(C)=C/Cn1cc(CC(N)(P(=O)(O)O)P(=O)(O)O)nn1", "note": "[Compound 18]", "values": [{"measurement": "GGDPS inhibitory activity in enzyme assay", "setting": "[1]", "result": "no activity"}]}, {"compound": "CC(C)=CCC/C(C)=C/CCn1cc(CC(P(=O)([O-])[O-])P(=O)([O-])[O-])nn1.[Na+].[Na+].[Na+].[Na+]", "note": "[Compound 5]", "values": [{"measurement": "Specificity for GGDPS over FDPS", "setting": "[2]", "result": "high specificity"}, {"measurement": "Cellular activity, lowest concentration", "setting": "myeloma cells; myeloma cells, mixture of olefin isomers", "result": 30, "unit": "nM"}]}, {"compound": "CC(C)=CCC/C(C)=C/CC(C/C=C(\\C)CCC=C(C)C)(P(=O)(O)O)P(=O)(O)O", "note": "[Compound 3, digeranyl bisphosphonate]", "values": [{"measurement": "Concentration at which cellular activity was observed", "setting": "[3]", "result": "~ 10 μM"}]}, {"compound": "CC(C)=CCC/C(C)=C\\CCn1cc(CC(C)(P(=O)([O-])[O-])P(=O)([O-])[O-])nn1.[Na+].[Na+].[Na+].[Na+]", "note": "[Compound 6]", "values": [{"measurement": "IC50", "setting": "[4]", "result": "125 ± 27", "unit": "nM"}, {"measurement": "Cellular LEC (lowest effective concentration)", "setting": "RPMI-8226 cells", "result": 0.02, "unit": "µM"}, {"measurement": "Cellular activity, lowest concentration", "setting": "myeloma cells", "result": 20, "unit": "nM"}]}, {"compound": "CC(C)=CCC/C(C)=C/CCn1cc(CC(C)(P(=O)([O-])[O-])P(=O)([O-])[O-])nn1.[Na+].[Na+].[Na+].[Na+]", "note": "[Compound 7]", "values": [{"measurement": "IC50", "setting": "[4]", "result": "86 ± 22", "unit": "nM"}, {"measurement": "Cellular activity, lowest concentration", "setting": "myeloma cells", "result": 25, "unit": "nM"}]}]}
